Patent US20240190841A1, “MODULATORS OF BCL6 PROTEOLYSIS AND ASSOCIATED METHODS OF USE” (Arvinas Operations, Inc., priority 2022, published 2024)

Biological target: T1, BCL6 (Homo sapiens, UniProt P41182)
T1 construct: endogenous in cells; host or cells: T47D breast cancer epithelial cells
Assay: Immunofluorescence high content imaging of BCL6 degradation in T47D cells
Type: cell-based
Details: T47D breast cancer epithelial cells, 3 days incubation
How it was run: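 T47D breast cancer cells treated 3 days at 37 °C with an 11-point 3-fold dilution series (top final 0.1 or 1 μM). Fixed with 4% PFA, Triton-permeabilised, stained with anti-BCL6 rabbit antibody plus Alexa-488 secondary, CellMask and Hoechst; imaged at 10×, 4 fields/well.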

SMILES | DC50 [nM] | Dmax [%]
CNC(=O)COc1cc2cc(Nc3nc(N4CCC(O[C@H]5C[C@H](N6CCN(c7ccc8ncn(C9CCC(=O)NC9=O)c8c7)CC6)C5)CC4)ncc3Cl)ccc2n(C(C)C)c1=O (stereo partly shown) [Compound 24, 2-({6-[(5-chloro-2-{4-[(1r,3r)-3-{4-[1-(2,6-dioxopiperidin-3-yl)-1H-1,3-benzodiazol-6-yl]piperazin-1-yl}cyclobutoxy]piperidin-1-yl}pyrimidin-4-yl)amino]-2-oxo-1-(propan-2-yl)-1,2-dihydroquinolin-3-yl}oxy)-N-methylacetamide] | < 10 | ≥ 70
CNC(=O)COc1cc2cc(Nc3nc(N4CCC(CN5CCC(N6CCC(c7ccc8c(c7F)CN(C7CCC(=O)NC7=O)C8=O)CC6)C(F)(F)C5)CC4)ncc3Cl)ccc2n(C(C)C)c1=O (stereo not shown) [Compound 43, 2-{[6-({5-chloro-2-[4-({4-[2-(2,6-dioxopiperidin-3-yl)-4-fluoro-1-oxo-2,3-dihydro-1H-isoindol-5-yl]-3′,3′-difluoro-[1,4′-bipiperidin]-1′-yl}methyl)piperidin-1-yl]pyrimidin-4-yl}amino)-2-oxo-1-(propan-2-yl)-1,2-dihydroquinolin-3-yl]oxy}-N-methylacetamide] | < 10 | 50 to 70
CNC(=O)COc1cc2cc(Nc3nc(N4CCC(O[C@H]5C[C@H](N6CCC(c7ccc8c(c7)n(C)c(=O)n8C7CCC(=O)NC7=O)CC6)C5)CC4)ncc3Cl)ccc2n(C(C)C)c1=O (stereo partly shown) [Compound 4, 2-({6-[(5-chloro-2-{4-[(1r,3r)-3-{4-[1-(2,6-dioxopiperidin-3-yl)-3-methyl-2-oxo-2,3-dihydro-1H-1,3-benzodiazol-5-yl]piperidin-1-yl}cyclobutoxy]piperidin-1-yl}pyrimidin-4-yl)amino]-2-oxo-1-(propan-2-yl)-1,2-dihydroquinolin-3-yl}oxy)-N-methylacetamide] | < 10 | ≥ 70
CNC(=O)COc1cc2cc(Nc3nc(N4CCC(O[C@H]5C[C@H](N6CCN(c7cc8c(cc7C)n(C7CCC(=O)NC7=O)c(=O)n8C)CC6)C5)CC4)ncc3Cl)ccc2n(C(C)C)c1=O (stereo partly shown) [Compound 20, 2-({6-[(5-chloro-2-{4-[(1r,3r)-3-{4-[1-(2,6-dioxopiperidin-3-yl)-3,6-dimethyl-2-oxo-2,3-dihydro-1H-1,3-benzodiazol-5-yl]piperazin-1-yl}cyclobutoxy]piperidin-1-yl}pyrimidin-4-yl)amino]-2-oxo-1-(propan-2-yl)-1,2-dihydroquinolin-3-yl}oxy)-N-methylacetamide] | < 10 | ≥ 70
CNC(=O)COc1cc2cc(Nc3nc(N4CCC(CN5CCC(C6CCN(c7ccc8c(c7F)CN(C7CCC(=O)NC7=O)C8=O)CC6)C(F)C5)CC4)ncc3Cl)ccc2n(C(C)C)c1=O (stereo not shown) [Compound 44, 2-{[6-({5-chloro-2-[4-({1′-[2-(2,6-dioxopiperidin-3-yl)-4-fluoro-1-oxo-2,3-dihydro-1H-isoindol-5-yl]-3-fluoro-[4,4′-bipiperidin]-1-yl}methyl)piperidin-1-yl]pyrimidin-4-yl}amino)-2-oxo-1-(propan-2-yl)-1,2-dihydroquinolin-3-yl]oxy}-N-methylacetamide] | < 10 | 50 to 70
